Target: ArlS histidine kinase (ArlSHK) (Staphylococcus aureus, UniProt Q9KJN3)
Assay: Kinase-Glo luminescent ATPase/kinase assay with purified ArlSHK, […] ATP, dose-response
Assay type: biochemical

ArlS histidine kinase (ArlSHK), sequence (Q9KJN3 239-451): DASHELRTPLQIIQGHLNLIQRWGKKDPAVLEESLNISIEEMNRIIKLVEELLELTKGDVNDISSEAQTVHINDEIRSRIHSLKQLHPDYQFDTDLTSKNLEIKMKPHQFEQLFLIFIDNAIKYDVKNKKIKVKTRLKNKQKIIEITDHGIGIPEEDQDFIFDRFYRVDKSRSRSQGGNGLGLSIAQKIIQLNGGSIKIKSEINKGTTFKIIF

**Q.** CC[C@H]1OC(=O)C[C@@H](O)[C@H](C)[C@@H](O[C@@H]2O[C@H](C)[C@@H](O)[C@H](N(C)C)[C@H]2O)[C@@H](CCN2C[C@H](C)C[C@H](C)C2)C[C@@H](C)C(=O)/C=C/C(C)=C/[C@@H]1CO[C@@H]1O[C@H](C)[C@@H](O)[C@@H](OC)[C@H]1OC [tilmicosin] was tested. Which IC50 did it give?
**A.** The IC50 was 1090 nM.

— publication PMC10891534, “The Staphylococcus aureus ArlS Kinase Inhibitor Tilmicosin Has Potent Anti-Biofilm Activity in Both Static and Flow Conditions” (Microorganisms, 2024)
